From patent US20120115905A1, “Nitrone, Nitroso, and Nitroxide Spintraps and Spin Labels and Their Hydroxylamines” (priority 2010, published 2012)
Entries after “also recorded” stand apart in the source; their conditions may differ.

What was measured:
animal models = details: cited from earlier work
humans = details: human clinical trials, even at several grams per day doses; cited from earlier work
[1] = test system: fibrocystic disease of breast; assay: Treatment of fibrocystic disease of breast in a patient; format: in vivo, human
Procedure: (§1) The reduced form of TEMPOL (TEMPOL-H) or equivalent pharmacologically-active spin label/spintrap is prepared by mixing together 2 grams of TEMPOL or a pharmacologically effective amount of another spin-label or spin trap such as methynitrosopropane, 20 grams of ascorbic acid or other reducing compound in 100 ml of distilled water. The formulation is used as is. The solution is slightly-bitter. The formulation can be administered diluted in a suitable liquid such as juice, tea, or coffee. An equivalent dry form as 10 mg of tempol mixed with 100 mg of acsorbic acid or equivalent reducing substance can be easily prepared in capsule or tablet form.
(§2) One-half ml of the above solution, comprising 10 mg TEMPOL plus 100 mg ascorbic acid, was administered orally once a day to a 50 kg person with a long history for fibrocystic disease of breast so severe that surgeons had recommended mastectomy. The same person had also been previously-diagnoses with severe trigeminal neuralgia.
(§3) Long-term relief can be achieved, but the symptoms eventually reappear on cessation of treatment for a few weeks.

trigeminal neuralgia = assay: Treatment of trigeminal neuralgia in a patient; format: in vivo, human; details: for trigeminal neuralgia (summary statement): humans, route and dose not stated
Procedure: as §1, §2, §3

[2] = test system: premenstrual dysphoric disorder; assay: Treatment of premenstrual dysphoric disorder; format: in vivo, human; details: for premenstrual dysphoric syndrome and its associated comorbid symptoms (summary statement): humans, route and dose not stated
Procedure: as §1, §2

migraine headache = assay: Treatment of migraine headache; format: in vivo, human; details: for migraine headache (summary statement): humans, route and dose not stated
Procedure: as §1, §2

post-herpetic neuropathy = assay: Treatment of post-herpetic neuropathy / neuralgia; format: in vivo, human; details: for post-herpetic neuralgia (summary statement): humans, route and dose not stated
Procedure: as §1
One-half ml of the above solution was orally-administered daily to a middle-aged person with chronic post-herpetic neuropathy of the feet, peridontitis, and gingivitis.

[3] = test system: gingivitis and peridontitis; assay: Treatment of gingivitis and peridontitis; format: in vivo, human; details: for peridontitis and gingivitis (summary statement): humans, route and dose not stated
herpes zoster lesions = assay: Treatment of herpes zoster lesions; format: in vivo, human; details: for herpes zoster lesions (summary statement): humans, route and dose not stated
influenza = assay: Amelioration of influenza symptomology; format: in vivo, human; details: for influenza (summary statement): humans, route and dose not stated
rectal hemorrhoids = assay: Treatment of rectal hemorrhoids; format: in vivo, human; details: for rectal hemorrhoids (summary statement): humans, route and dose not stated
Procedure: Boil until methycellulose dissolves (5-10 minutes)
Alternative is I million-dalton MW 1% propylcellulose, which dissolves overnight without boiling.
Add 5 grams TEMPOL with stirring

cyclic vomiting syndrome = assay: Treatment of cyclic vomiting syndrome; format: in vivo, human; details: the above treatment (10 mg TEMPOL plus 100 mg ascorbic acid orally once a day)
[4] = test system: peripheral vascular disease; assay: Treatment of peripheral vascular disease; format: in vivo, human; details: the above treatment (10 mg TEMPOL plus 100 mg ascorbic acid orally once a day)
rhinositis = assay: Local nasal treatment of rhinositis; format: in vivo, human; details: 0.1 ml applied locally to the nasal cavity
[5] = 10 mg TEMPOL plus 100 mg ascorbic acid orally once a day, same patient
[6] = one-half ml of solution orally daily, middle-aged male
[7] = topical application once a day to the affected area

Q: What does the source list for `CC(C)(C)[N+]([O-])=Cc1ccc(S(=O)(=O)[O-])cc1S(=O)(=O)[O-].[Na+].[Na+]` [NXY-059, disulfonyl PBN]?
A: neuroprotective efficacy in animal models (animal models): effective in animal models; neuroprotective efficacy in humans (humans): not in humans; also recorded: perpetual failure

Q: Which “efficacy of Tempol itself (unreduced)” value ([1]; same doses as the reduced formulation) does the source give for `CC1(C)CC(O)CC(C)(C)N1[O]` [TEMPOL, 4-hydroxy-2,2,6,6-tetramethylpiperidin-1-yloxy] here?
A: effective at the same doses

Q: What about the “trigeminal neuralgia (summary statement)” value (trigeminal neuralgia) of the same compound?
A: ameliorate

Q: And the “premenstrual dysphoric syndrome and its associated comorbid symptoms (summary statement)” value [2]?
A: ameliorate

Q: And the “migraine headache (summary statement)” value (migraine headache)?
A: prevent and treat

Q: And the “post-herpetic neuralgia (summary statement)” value (post-herpetic neuropathy)?
A: prevent and treat

Q: And the “gingivitis and peridontitis, local intraoral treatment” value ([3]; 0.5 ml of 5% TEMPOL liquid or gel applied to the affected gums for one to three days)?
A: reducing tenderness and bleeding

Q: What about the “peridontitis and gingivitis (summary statement)” value [3] of the same compound?
A: ameliorate

Q: And the “herpes zoster lesions (summary statement)” value (herpes zoster lesions)?
A: prevent and treat

Q: And the “influenza (summary statement)” value (influenza)?
A: ameliorate

Q: What about the “symptoms of rectal hemorrhoids” value (rectal hemorrhoids; 0.2 ml of 5% solution (methyl cellulose gel) transrectally for one to three days) of the same compound?
A: ameliorates the symptoms of rectal hemorrhoids, especially pain, swelling, and bleeding

Q: And the “rectal hemorrhoids (summary statement)” value (rectal hemorrhoids)?
A: ameliorate

Q: Which “time until first results appeared” value ([1]; 10 mg TEMPOL plus 100 mg ascorbic acid orally once a day, one patient) does the source give for `CC1(C)CC(O)CC(C)(C)N1O` [TEMPOL-H] here?
A: 1-2 weeks

Q: And the “regression / shrinkage of the breast cysts” value ([1]; 10 mg TEMPOL plus 100 mg ascorbic acid orally once a day, one patient, mammographic imaging and digital palpation)?
A: almost complete regression; also recorded: shrinkage of the breast cysts

Q: What about the “breast cysts upon resumption of treatment” value ([1]; resumption after cessation of treatment for a few weeks, same oral dose) of the same compound?
A: again drastically shrink

Q: And the “effect on long-standing trigeminal neuralgia” value (trigeminal neuralgia; [5])?
A: alleviated and prevented

Q: And the “trigeminal neuralgia (summary statement)” value (trigeminal neuralgia)?
A: ameliorate

Q: And the “symptoms of anxiety/depression and mood swings outside the premenstrual time period” value [2, 5]?
A: Efficacy was observed

Q: What about the “symptoms of premenstrual dysphoric disorder including comorbidity” value [2, 5] of the same compound?
A: alleviates and prevents

Q: What about the “premenstrual dysphoric syndrome and its associated comorbid symptoms (summary statement)” value [2] of the same compound?
A: ameliorate

Q: What about the “migraine headache (summary statement)” value (migraine headache) of the same compound?
A: prevent and treat

Q: What about the “migraine headache prevention and symptoms” value (migraine headache; the above treatment (10 mg TEMPOL plus 100 mg ascorbic acid orally once a day)) of the same compound?
A: both prevents migraine headache and ameliorates the symptoms

Q: And the cyclic vomiting syndrome (cyclic vomiting syndrome)?
A: prevents, controls, and ameliorates

Q: And the peripheral vascular disease [4]?
A: controls, and ameliorates

Q: What about the “post-herpetic neuralgia (summary statement)” value (post-herpetic neuropathy) of the same compound?
A: prevent and treat

Q: And the “symptomatic relief of chronic post-herpetic neuropathy of the feet” value (post-herpetic neuropathy; [6])?
A: Symptomatic relief of all of these was experienced within one week

Q: What about the “post-herpetic neuralgia, topical application” value (post-herpetic neuropathy; [7]) of the same compound?
A: also effective

Q: What about the “peridontitis and gingivitis (summary statement)” value [3] of the same compound?
A: ameliorate

Q: And the “symptomatic relief of peridontitis and gingivitis” value [3, 6]?
A: Symptomatic relief of all of these was experienced within one week

Q: What about the “gingivitis and peridontitis, topical application” value ([3]; topical application of the reduced TEMPOL solution) of the same compound?
A: also effective

Q: And the “herpes zoster lesions (summary statement)” value (herpes zoster lesions)?
A: prevent and treat

Q: What about the “herpes zoster lesions, topical application” value (herpes zoster lesions; [7]) of the same compound?
A: also effective

Q: And the “influenza (summary statement)” value (influenza)?
A: ameliorate

Q: What about the symptoms of influenza (influenza; one-half ml orally once or twice daily) of the same compound?
A: significantly-ameliorates

Q: And the rhinositis (rhinositis)?
A: ameliorates rhinositis

Q: What about the “rectal hemorrhoids (summary statement)” value (rectal hemorrhoids) of the same compound?
A: ameliorate
